{"source": "ChEMBL document CHEMBL1147388", "about": "“Three new cytotoxic metabolites from the marine sponge Plakortis halichondrioides” (J Nat Prod, 1993)", "test_system": "P388", "test": "Cytotoxicity against mouse P388 cells", "type": "functional, cell-based", "data": [{"smiles": "CC/C=C/C(CC)CCCC1(CC)C[C@H](CC)[C@H](CC(=O)OC)OO1", "note": "(relative stereo)", "values": [{"measurement": "IC50", "result": 5, "unit": "µg/mL"}]}, {"smiles": "CC/C=C/C(CC)C/C(C)=C/C(O)(CC)CC(O)(/C=C/C(=O)O)CC", "note": "(centres undefined)", "values": [{"measurement": "IC50", "result": 10, "unit": "µg/mL"}]}, {"smiles": "CC/C=C/C(CC)C/C(=C/C(O)(CC)CC(O)(/C=C/C(=O)O)CC)CC", "note": "(centres undefined)", "values": [{"measurement": "IC50", "result": 10, "unit": "µg/mL"}]}, {"smiles": "CC/C=C/C(CC)CCCC1(CC)C[C@H](CC)[C@H](CC(=O)O)OO1", "note": "(relative stereo)", "values": [{"measurement": "IC50", "result": 0.5, "unit": "µg/mL"}]}]}
